How the values were obtained:
[1] = tested on: NO production in LPS-stimulated RAW 264.7 macrophages; assay: NO production (Griess assay) in LPS-stimulated macrophages; assay type: cell-based, murine; settings: Mus musculus, RAW264.7, 24 h, RAW 264.7, LPS 100 ng/mL, Griess
Experimental: The anti-inflammatory potential of chalcones 1–7 was evaluated in macrophages cultured in the presence or absence (control) of LPS, as depicted in Figure 4. Under basal conditions (unstimulated, control), macrophages produce low levels of nitrites (≈12%). […] Each chalcone was tested at concentrations previously established as non-cytotoxic in macrophages, trying to ensure that observed changes in NO levels were not due to reduced cell viability.
The production of NO was evaluated by measuring nitrite accumulation in culture supernatants using the previously described Griess assay. Cells were seeded at a concentration of 5.0 × 10^4 cells/mL in a 96-well plate (200 μL/well) and allowed to stabilize overnight at 37 °C. Afterwards, the cells were treated with different concentrations of compound solutions and pre-incubated for 1 h at 37 °C. Subsequently, an LPS in PBS solution was added to each well, achieving a final concentration of 100 ng/mL, and the plate was left to incubate for 24 h. An amount of 150 μL of the cell culture supernatant was then transferred to a fresh 96-well plate, and an equal amount of Griess reagent [comprising a 1:1 mixture of 1% (w/v) sulphanilamide in 5% (v/v) phosphoric acid and 0.1% (w/v) naphthylethylenediaminedihydrochloride] was added. Following a 30 min incubation at room temperature in the dark, the absorbance was recorded at 550 nm using a Biotek Synergy HT plate reader (Biotek, CA, USA). The nitrite concentration in the supernatants was determined by comparing the absorbance of each sample to a sodium nitrite standard curve. The results, obtained from at least three independent experiments performed in duplicate, were expressed as a percentage of NO production by cells versus chemical concentration, relative to LPS condition (100%).
Figure 4 NO production by macrophages treated with LPS (100 ng/mL) or not (control) in the presence of chalcones 1–7. Results are expressed as a percentage of NO production by cells treated with LPS (100 ng/mL). Each value represents the mean ± SEM of four independent experiments in duplicate. Statistical analysis: one ANOVA with Dunnett’s multiple comparisons test, where p< 0.05 was considered significant. *** p < 0.005, relative to the control, and ^# p < 0.05, ^## p < 0.01, ^### p < 0.0005, and ^#### p < 0.0001, relative to LPS condition.

[2] = tested on: Nrf2; assay: KeratinoSens assay, Nrf2 luciferase reporter; assay type: cell-based, human; settings: 24 h, compared to vehicle (DMSO)
Experimental: The KeratinoSens™ assay was originally developed to assess the skin sensitization potential of Nrf2 activation, but it has also been utilized to evaluate the ability of natural compounds to induce this transcription factor [46, 47]. In this study, we assessed the capacity of chalcones 1 and 2 to activate Nrf2 after 24 and 48 h (Figure 8A–F).
Selected compounds (chalcones 1 and 2), and the positive control, DMF, were dissolved in sterile DMSO. Intermediate dilutions were prepared in culture medium, including the final concentration to be added to the 96-well plate, with a final volume of 200 µL per well. The KeratinoSens™ assay was conducted as previously described. In brief, cells were seeded at a density of 10,000 cells per well in 96-well white opaque plates (Greiner Bio-One GmbH, cat. no. 655083, Kremsmünster, Austria) and incubated for 24 h. The medium was then replaced with fresh medium containing 1% FBS and the test compounds, and cells were incubated for an additional 24 and 48 h. DMF was used as the positive control since it is a known Nrf2 activator. Cell viability was assessed in the same cells using resazurin. After 20 or 44 h of exposure to the test compounds, 50 µM of resazurin solution (in sterile PBS) was added to each well, and the plates were incubated for 4 h at 37 °C, 5% CO2 Following the resazurin incubation, the supernatant was transferred to a transparent 96-well plate, and absorbance was measured at 570 and 620 nm using a Synergy HT multi-mode microplate reader (BioTek, Bad Friedrichshall, Germany). To measure luciferase activity, cells in the white opaque 96-well plates were washed with 1× PBS. An equal volume of 1× PBS and lysis buffer (One-GLO Luciferase, cat. no. E6130, Promega, Madison, WI, USA) was added to the wells, and the plates were incubated for 20 min at room temperature. Luminescence was then measured using a FLUOstar OMEGA Microplate Reader (BMG Labtech GmbH, Ortenberg, Germany).
Figure 8 Nrf2 activation using the KeratinoSens™ assay in HaCaT cells transfected with an Nrf2 luciferase reporter construct, incubated for 24 h (A–C) or 48 h (D–F) with chalcones 1 and 2. DMF was used as a positive control. Data represent the results from four independent experiments. Non-linear regression analysis was performed using GraphPad Prism v.9.0.0 for Windows. The blue line represents the results of cell viability (% regarding the control) and the green line represents fold induction. Statistical analysis: one ANOVA with Dunnett’s multiple comparisons test, where significance includes. * p < 0.05, ** p < 0.01, *** p < 0.0005, and **** p < 0.0001.

- IC50 [1]: 580 ± 120 nM
- Nrf2 mean fold induction ([2]; 7.5 µM): 3.49 fold
Structure (SMILES): COc1cc(Br)c(/C=C/C(=O)c2cc(OC)c(OC)cc2Br)cc1OC [Chalcone 1]
- fold induction at 5 µM ([2]; Homo sapiens, 5 µM): 3.18
- fold induction at 7.5 µM ([2]; Homo sapiens, 7.5 µM): ~3.5

Source: paper PMC12299847, “Macroalgae-Inspired Brominated Chalcones as Cosmetic Ingredients with the Potential to Target Skin Inflammaging” (Marine Drugs, 2025)
